# Experimental data published in patent publication US20150125397A1, “DUAL SPECIFIC BINDING PROTEINS DIRECTED AGAINST IMMUNE CELL RECEPTORS AND AUTOANTIGENS” (ABBVIE INC., priority 2013, published 2015).
# Key:
# Assay type in all cases: cell-based, mouse
# [1] = tested on: Dnase2−/− Ifnar1−/− Unc93b1−/− TKO B cells; assay: 3H-thymidine incorporation of B220-purified B cells, TKO; conditions: 24 hours, FIG. 10C
# Text: (§1) Mice: RF and Tlr-9^−/− mice have been described previously (Uccellini et al. (2008) J. Immunol. 181:5875-5884), The DNase II-deficient mice on a C57BL/6 background were kindly provided by Dr. S, Nagata and obtained from the RIKEN Institute. […] and Unc93B1-deficient mice were obtained from Jackson Lab. DnaseII^−/− Ifnar1^−/− (Het), DnaseII^−/− Ifnar1−/− (DKO), and DnaseII^−/− Unc93b1^−/− (TKO), were bred at UMMS. All mice were maintained at the Department of Animal Medicine of the University of Massachusetts Medical School in accordance with the regulations of the American Association for the Accreditation of Laboratory Animal Care.
# (§2) Proliferation of B220+ B cells: B cells were purified by magnetic bead separation using CD45R/B220-conjugated magnetic particles (BD Biosciences, San Jose, Calif., USA) and stimulated as described previously (Nundel et al. (2013) J. Leukoc. Biol. 94:865-875) with 15 μg/ml goat anti-mouse IgM F(ab′)2 (Jackson ImmunoResearch), ODN1826 (CpG; Idera Pharmaceuticals), anti-DNA-mAb (Leadbetter et al. (2002) Nature 416:603-607), or DVD-Ig proteins (1 μg/ml). B cell proliferation was assessed by ^3H-thymidine (Amersham Biosciences, Piscataway, N.J., USA) incorporation at 24 hours post-stimulation. For long-term proliferation assays, B220-purified B cells were labeled with a final concentration of 2.5 μM CFSE (Life Technologies) in PBS for 2 minutes. […]
# Primary murine B cells = assay: CFSE dilution / Sytox Blue FACS of primary murine B cells; conditions: 72 hours; absence of BLyS; FIG. 3
# Description: Primary murine B cells were purified by positive selection as described above. For cultures >48 hours old, proliferation was quantified by carboxyfluorescein diacetate, succinimidyl ester (CFSE) dilution and cell death by TO-PRO-3 binding. To label the cells with CFSE, the cells were first washed 2 times with PBS. Next, the stock of CFSE was diluted to 10 μM in PBS and the cells were brought to 1×10^7 cells/ml. The cells were mixed at a 1:1 ratio with 10 μM CFSE and mixed gently for 2 minutes. The CFSE labeling reaction was stopped by adding heat inactivated fetal calf serum equal in volume to the starting volume for the cell suspension. […] Proliferation was measured by fluorophore dilution at 60-72 hours by flow cytometry. […]
# Primary murine B cells were labeled and prepared as in Example 2.7 and stimulated with either media alone, […] of TLR9 ligand CpG oligodeoxynucleotide (ODN) 1826, […] of the mouse anti-chromatin autoantibody PL2-3 or […] DVD3759 in the presence or absence of […] of the B cell survival factor BLyS. After 72 hours, cells were stained with 1 μM of the cell permeable DNA stain Sytox Blue and analyzed by fluorescence activated cell sorting (FACS). Cell division was determined by dilution of CFSE and dead cells were identified by staining with Sytox Blue.
# [2] = tested on: Dnase2−/− Ifnar1−/− DKO B cells; assay: 3H-thymidine incorporation of B220-purified B cells, DKO; conditions: 24 hours, FIG. 10C
# Text: as §1, §2
substance,measurement,setting,value
ODN 1826 [reference compound],response of TKO B cells,[1],failed to respond
same,cell division (CFSE dilution) and cell death (Sytox Blue),Primary murine B cells,post-proliferative cell death was not observed
same,response of DKO B cells,[2],normal response
